In test [1] the target is T1, human serum albumin (HSA) (Homo sapiens, UniProt P02768). Nature of the test: fluorescence titration. In kind it is binding.
For test [2], the target named is T1, human serum albumin (HSA). Briefly: fluorescence titration. In kind it is binding. This is another data set of the same source.

Read-outs that look alike come from different tables or passages of the source.

T1 sequence (P02768 25-609): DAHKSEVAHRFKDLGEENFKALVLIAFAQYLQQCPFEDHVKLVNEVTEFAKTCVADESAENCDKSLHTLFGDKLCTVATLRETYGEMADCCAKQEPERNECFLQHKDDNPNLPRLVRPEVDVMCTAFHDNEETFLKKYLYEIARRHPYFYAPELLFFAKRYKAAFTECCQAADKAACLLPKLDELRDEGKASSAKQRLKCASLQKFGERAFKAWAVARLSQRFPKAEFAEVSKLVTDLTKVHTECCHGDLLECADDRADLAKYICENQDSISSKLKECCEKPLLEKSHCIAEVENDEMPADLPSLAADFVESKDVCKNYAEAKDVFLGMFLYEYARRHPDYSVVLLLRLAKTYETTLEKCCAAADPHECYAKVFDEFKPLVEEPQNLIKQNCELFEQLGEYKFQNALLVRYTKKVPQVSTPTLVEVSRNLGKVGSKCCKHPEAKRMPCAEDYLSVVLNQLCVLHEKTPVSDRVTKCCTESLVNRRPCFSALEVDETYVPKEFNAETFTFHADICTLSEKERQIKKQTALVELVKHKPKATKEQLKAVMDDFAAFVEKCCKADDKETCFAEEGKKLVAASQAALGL

What is called Kd is the free concentration of one partner at which half of the binding sites on the other are occupied at equilibrium, for simple one-to-one binding. The low end stands for a tighter complex, the high end for a looser complex. For the compound `COc1cc(/C=C/C2=C(C#N)C(=C(C#N)C#N)OC2(C)C)cc(OC)c1O` [compound 1, (E)-2-(3-cyano-4-(4-hydroxy-3,5-dimethoxystyryl)-5,5-dimethylfuran-2(5H)-ylidene)malononitrile], the affinity in test [1], expressed as Kd, was 6.67 µM.
With `CC1(C)OC(=C(C#N)C#N)C(C#N)=C1/C=C/c1ccc(O)cc1` [compound 2, fluorophore 2], in test [2], binding was put at a Kd of 5.26 µM.

Values taken from article PMC6874406 (Journal of photochemistry and photobiology. A, Chemistry, 2019).
